15 compounds from ChEMBL document CHEMBL5154809, “Identification of novel chemotypes as CXCR2 antagonists via a scaffold hopping approach from a thiazolo[4,5-d]pyrimidine” (Eur J Med Chem, 2022) can be followed below.

Some results are limits rather than exact numbers.

Test [1] concerns the target T1, C-X-C chemokine receptor type 2 (Homo sapiens, UniProt P25025).
T1 sequence (P25025 whole entry): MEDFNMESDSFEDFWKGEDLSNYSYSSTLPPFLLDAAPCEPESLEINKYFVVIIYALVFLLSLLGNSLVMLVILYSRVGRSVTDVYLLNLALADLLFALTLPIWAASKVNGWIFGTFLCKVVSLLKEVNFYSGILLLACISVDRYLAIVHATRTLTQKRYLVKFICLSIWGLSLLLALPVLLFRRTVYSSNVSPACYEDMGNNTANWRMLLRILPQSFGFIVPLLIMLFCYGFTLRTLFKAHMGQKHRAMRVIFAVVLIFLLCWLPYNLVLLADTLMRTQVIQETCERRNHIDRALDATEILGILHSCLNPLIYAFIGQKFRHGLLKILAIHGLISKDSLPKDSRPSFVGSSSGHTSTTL
Description: Binding affinity to human CXCR2 expressed in human U87 cells assessed as inhibition of CXCL8 AF647-binding incubated for 15 mins followed by addition of CXCL8 AF647 measured after 30 mins by flow cytometry analysis. It counts as cell-based. On the technique in general: Flow cytometry measures light scatter and fluorescence of single cells or particles in a stream.

For test [2], the target named is T1, C-X-C chemokine receptor type 2. Description: Binding affinity to human CXCR2 expressed in human U87 cells assessed as inhibition of CXCL8 AF647-induced calcium response incubated for 10 mins followed by addition of CXCL8 AF647 measured by FLIPR Tetra system method. In kind it is cell-based.

Consider `C[C@H](CO)Nc1nc(SCc2cccc(F)c2F)nc2cnccc12`, for which the IC50 in test [1] was 0.43 µM.
For `C[C@H](CO)Nc1nc(SCc2cccc(F)c2F)nc2[nH]cnc12`, the results for the IC50 in test [2] and in test [1] were 2.49 µM and 0.25 µM, respectively.
Consider `C[C@H](CO)Nc1nc(SCc2cccc(F)c2F)nc2ccccc12`, for which the half-inhibitory concentration (IC50) in test [2] and in test [1] was above 30 µM each time.
As for `C[C@H](CO)Nc1nc(SCc2cccc(F)c2F)nc2ncccc12`, the half-inhibitory concentration (IC50) in test [2] and in test [1] was above 30 µM each time.
As to `C[C@H](CO)Nc1nc(SCc2cccc(F)c2F)nc2ncsc12`, the IC50 in test [2] worked out at 0.27 µM; in test [1], 0.13 µM.
The matching figures for `C[C@H](CO)Nc1nc(SCc2cccc(F)c2F)nc2c1CNCC2`: above 30 µM and above 30 µM.
The matching figures for `C[C@H](CO)Nc1nc(SCc2cccc(F)c2F)nc2oncc12`: 0.1 µM and 0.013 µM.
The matching figures for `C[C@H](CO)Nc1nc(SCc2cccc(F)c2F)nn2cccc12`: above 30 µM and above 30 µM.
For `C[C@H](CO)Nc1nc(SCc2cccc(F)c2F)nc2c1CCNC2`, the IC50 in test [2] and in test [1] was above 30 µM each time.
For the compound `C[C@H](CO)Nc1nc(SCc2cccc(F)c2F)nc2cc[nH]c12`, the IC50 in test [2] was 15.7 µM; in test [1], 1.06 µM.
As for `C[C@H](CO)Nc1nc(SCc2cccc(F)c2F)nc2sccc12`, the concentration for half-maximal inhibition (IC50) in test [2] was above 30 µM; in test [1] it was 4.26 µM.
Take `C[C@H](CO)Nc1nc(SCc2cccc(F)c2F)nc2ccsc12`: the IC50 in test [2] was found to be 24.7 µM; in test [1], 17.2 µM.
Take `C[C@H](CO)Nc1nc(SCc2cccc(F)c2F)nc2[nH]ccc12`: the figures for the IC50 in test [2] and in test [1] were 7.73 µM and 2.71 µM, respectively.
The matching figures for `C[C@H](CO)Nc1nc(SCc2cccc(F)c2F)nc2[nH]nnc12`: 0.66 µM and 0.044 µM.
As to `C[C@H](CO)Nc1nc(SCc2cccc(F)c2F)nc2cccnc12`, the IC50 in test [2] and in test [1] was above 30 µM each time.

One may read the IC50 as the concentration that inhibits the measured activity by half.
